Literature values, collected in patent US20150320096A1, “Dietary Supplement” (MC Corp., priority 2013, published 2015).
One block for each molecule: values may come before it.

Assays:
glut-4 transporters = conditions: muscle tissue
[1] = oral
[2] = oral administration

SMILES: O=C(O)CCCCC1CCSS1 (stereo not drawn) [ALA, Alpha-Lipoic Acid]
- increase in the number of glut-4 transporters on the outside of the muscle cells (glut-4 transporters): ≤ 50%

- ingested dose absorbed by diffusion process [1]: approximately 1%
SMILES: C/C1=C2/[N-][C@H]([C@H](CC(N)=O)[C@@]2(C)CCC(=O)NC[C@@H](C)OP(=O)([O-])O[C@H]2[C@@H](O)[C@@H](n3cnc4cc(C)c(C)cc43)O[C@@H]2CO)[C@]2(C)N=C(/C(C)=C3N=C(/C=C4N=C1[C@@H](CCC(N)=O)C\4(C)C)[C@@H](CCC(N)=O)[C@]\3(C)CC(N)=O)[C@@H](CCC(N)=O)[C@]2(C)CC(N)=O.[CH3-].[Co+3] [Methylcobalamin]
- burning sensations, numbness, loss of sensation, and muscle cramps [2]: subjective improvement

- increase of plasma coenzyme Q10 (dietary supplementation, patients with diabetes): at least 3 fold
SMILES: COC1=C(OC)C(=O)C(C/C=C(\C)CC/C=C(\C)CC/C=C(\C)CC/C=C(\C)CC/C=C(\C)CC/C=C(\C)CC/C=C(\C)CC/C=C(\C)CC/C=C(\C)CCC=C(C)C)=C(C)C1=O [coenzyme Q10, Coenzyme Q10]
- blood glucose levels (dietary supplementation): significantly reduce
- hemoglobin A1C (HbA1C) (dietary supplementation): lower
- blood pressure (patients with diabetes): significantly lowered
- insulin requirements (patients with diabetes): reduce
